This is an account of results in patent US5196424A, “N-[2-amino-4-substituted[[(pyrrollo or pyrido)[2,3-d]pyrimidinyl]-alkyl]benzoyl]-L-glutamic acids” (priority 1992, dated 1993).

Converted amounts (≈) assume the structure as drawn. Read-outs that look alike come from different tables or passages of the source.

The test system of one series is CCRF-CEM cells. The experiment in a line: Growth inhibition of CCRF-CEM human leukemia cells, 72 h, Coulter counter (Table I). To be noted: read-out: IC50, concentration required for 50% inhibition of growth. The class given is cell-based. The protocol:
Cluster plates were prepared in duplicate with the compound at various concentrations ranging from 100 μg/ml to 0.005 μg/ml. Test compounds were dissolved initially in DMSO and further diluted with solvent to the desired concentration.

Another series has as its system 6C3HED lymphosarcoma. The experiment in a line: In vivo test against transplanted 6C3HED (Gardner) lymphosarcoma in C3H mice (Table II). On the procedure: The compounds were tested in C3H mice bearing a 6C3HED lymphosarcoma, also known as the Gardner lymphosarcoma (GLS). The 6C3HED lymphosarcoma was obtained from the Division of Cancer Treatment, National Cancer Institute, Tumor Bank, maintained at E. G. and G. Mason Research (Worcester, Massachusetts). First passage tumor was stored in liquid nitrogen using standard techniques. The transplanted tumor was reestablished from the Tumor Bank every six months or as needed. The tumor was maintained by serial passage twice weekly in C3H mice.
In the procedure, the tumor was removed from passage animals and minced into 1- to 3-mm square fragments using sterile techniques. Tumor pieces were checked for sterility using both Antibiotic Medium 1 and Brain Heart Infusion (Difco, Detroit, Mich.). Recipient mice were shaved and tumor pieces were implanted subcutaneiously in the auxiliary region by trocar. Drug therapy on the appropriate schedule was initiated on the day after tumor implant. The compound being tested was mixed with 2.5 weight % of a polyoxyethylated oil known as "Emulphor EL 620" surfactant from GAF Chemicals Corporation (1:40 dilution of Empulphor in saline). All animals were weighed at the beginning and end of administration of the subject compounds. Food and water were provided ad libitum. The drug was administered in 0.5 ml of 2.5% Emulphor. Unless otherwise indicated, the compound was administered once per day for eight days. The tumor was measured the day after treatment ended with two dimensional measurements (width and length) of the tumor taken using digital electronic calipers interfaced to a microcomputer, J. F. Worzalla, et al., Investigational New Drugs, 8, 241-251 (1990). Tumor weights were calculated from these measurements using the following formula:
(tumor weight in mg)=width in mm)^2 ×(length in mm)/2
At least one control group of an equal number of mice was treated with the same volume of 2.5% Emulphor only.

Series [1] deals with T1, human dihydrofolate reductase (DHFR) (Homo sapiens, UniProt P00374).
T1 construct: was obtained from human leukemic lymphoblasts (WI-L2/M4 cells); endogenous in cells; host or cells: WI-L2/M4 human leukemic lymphoblasts; enzyme purified from the cells according to Delcamp et al., Biochemistry 22, 633-639 (1983)
T1 sequence (P00374 1-187): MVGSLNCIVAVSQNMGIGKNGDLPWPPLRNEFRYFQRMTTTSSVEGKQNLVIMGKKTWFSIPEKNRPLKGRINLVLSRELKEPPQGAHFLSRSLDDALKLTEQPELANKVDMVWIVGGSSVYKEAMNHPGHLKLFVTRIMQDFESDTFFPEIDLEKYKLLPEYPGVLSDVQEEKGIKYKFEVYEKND
Put plainly: Inhibition of isolated human dihydrofolate reductase (Table III). The class given is biochemical. The following applies: DHFR (5 × 10^-8 M); read-out: DHFR IC50, concentration required for 50% inhibition of enzyme activity.

For series [2], the system named is C3H Mammary Adenocarcinoma. To be noted: Days 1,3,5,7,9.
The next series has as its system dihydrofolic reducatase. To be noted: background statement; cited from earlier work.
Where [3] appears, read: CCRF-CEM cells, 72 h incubation.

Take `Nc1nc(Cl)c2c(CCc3ccc(C(=O)N[C@@H](CCC(=O)O)C(=O)O)cc3)c[nH]c2n1` [Example 1, N-[2-amino-4-chloro-[[pyrrolo[2,3-d]-pyrimidin-5-yl]-ethyl]benzoyl]-L-glutamic acid]: the IC50 in the series with CCRF-CEM cells (setting [3]) is > 20 µg/mL.
Same read-out and setting: to `Nc1nc(S)c2c(CCc3ccc(C(=O)N[C@@H](CCC(=O)O)C(=O)O)cc3)c[nH]c2n1` [Example 2, N-[2-amino-4-mercapto[[pyrrolo[2,3-d]-pyrimidin-5-yl]-ethyl]benzoyl]-L-glutamic acid] belongs 0.032 µg/mL (≈ 0.0722 µM).
Still for that read-out and setting: next, `Nc1ncc2c(CCc3ccc(C(=O)N[C@@H](CCC(=O)O)C(=O)O)cc3)c[nH]c2n1` [Example 3, N-[2-amino-[[pyrrolo[2,3-d]-pyrimidin-5-yl]-ethyl]benzoyl]-L-glutamic acid]: 0.019 µg/mL (≈ 0.0462 µM).
`Nc1ncc2c(n1)NCC2CCc1ccc(C(=O)N[C@@H](CCC(=O)O)C(=O)O)cc1` (stereo partly drawn) [Example 4, N-[2-amino-[di-hydropyrrolo[2,3-d]pyrimidin-5-yl]-ethyl]benzoyl-L-glutamicacid]: the IC50 in the series on CCRF-CEM cells (setting [3]) worked out at 0.005 µg/mL (≈ 0.0121 µM); in series [1], 96 nM. In addition, the “% INH (percent inhibition of tumor)” value is 0% in the series on 6C3HED lymphosarcoma (0.25 mg/kg, Dailyx8); 1% in the series with 6C3HED lymphosarcoma (0.50 mg/kg, Dailyx8); 97% in the series on 6C3HED lymphosarcoma (2.00 mg/kg, Dailyx8); 49% with 6C3HED lymphosarcoma (2 mg/kg, Days 1,3,5,7); 100% in the series with 6C3HED lymphosarcoma (4.00 mg/kg, Dailyx8); 99% in the series on 6C3HED lymphosarcoma (4 mg/kg, Days 1,3,5,7). Moreover, the “% INH (percent inhibition of tumor)” value was found to be 100% in the series with 6C3HED lymphosarcoma (6.25 mg/kg, Dailyx8); 100% with 6C3HED lymphosarcoma (12.5 mg/kg, Dailyx8); 100% in the series on 6C3HED lymphosarcoma (16 mg/kg, Days 1,3,5,7); 10% in series [2] (2 mg/kg); 24% in series [2] (4 mg/kg); 92% in series [2] (16 mg/kg). Also, the “% INH (percent inhibition of tumor)” value in series [2] (32 mg/kg) is 95%. Besides, the Toxic/Total is recorded as 0/10 in the series on 6C3HED lymphosarcoma (0.25 mg/kg, Dailyx8); 0/10 with 6C3HED lymphosarcoma (0.50 mg/kg, Dailyx8); 0/10 in the series with 6C3HED lymphosarcoma (1.00 mg/kg, Dailyx8); 0/10 in the series with 6C3HED lymphosarcoma (2.00 mg/kg, Dailyx8); 0/10 with 6C3HED lymphosarcoma (2 mg/kg, Days 1,3,5,7); 1/10 in the series with 6C3HED lymphosarcoma (4.00 mg/kg, Dailyx8). The Toxic/Total with 6C3HED lymphosarcoma (4 mg/kg, Days 1,3,5,7) is recorded as 0/10; in the series on 6C3HED lymphosarcoma (6.25 mg/kg, Dailyx8) it was 6/10; in the series on 6C3HED lymphosarcoma (8 mg/kg, Days 1,3,5,7) it was 0/10; in the series on 6C3HED lymphosarcoma (12.5 mg/kg, Dailyx8) it was 8/10; with 6C3HED lymphosarcoma (16 mg/kg, Days 1,3,5,7), 0/10; in the series on 6C3HED lymphosarcoma (25 mg/kg, Dailyx8) it was 10/10. Further, the Toxic/Total in the series with 6C3HED lymphosarcoma (50 mg/kg, Dailyx8) was 10/10; in series [2] (1 mg/kg), 0/10; in series [2] (2 mg/kg) it was 0/10; in series [2] (4 mg/kg), 0/10.
For the compound `COc1nc(N)nc2[nH]cc(CCc3ccc(C(=O)N[C@@H](CCC(=O)O)C(=O)O)cc3)c12` [Example 5, N-[2-amino-4-methoxy[[pyrrolo[2,3-d]-pyrimidin-5-yl]-ethyl]benzoyl]-L-glutamic acid], the IC50 in the series with CCRF-CEM cells (setting [3]) was > 2 µg/mL.
In the case of `CCN(CC)c1nc(N)nc2[nH]cc(CCc3ccc(C(=O)N[C@@H](CCC(=O)O)C(=O)O)cc3)c12` [Example 6, N-[2-amino-4-diethylamino-[[pyrrolo[2,3-d]-pyrimidin-5-yl]-ethyl]benzoyl]-L-glutamic acid], the IC50 with CCRF-CEM cells (setting [3]) worked out at 0.9 µg/mL (≈ 1.87 µM).
Take `Nc1ncc2c(n1)NCC(CCc1ccc(C(=O)N[C@@H](CCC(=O)O)C(=O)O)cc1)C2` (stereo partly drawn) [Example 7, N-[2-amino-[[tetrahydropyrido[2,3-d]-pyrimidin-6-yl]-ethyl]benzoyl]-L-glutamic acid]: the IC50 in the series with CCRF-CEM cells (CCRF-CEM, 72 h) was found to be 0.005 µg/mL (≈ 0.0117 µM).
Regarding `CN(Cc1cnc2nc(N)nc(N)c2n1)c1ccc(C(=O)N[C@@H](CCC(=O)O)C(=O)O)cc1` [amethopterin], in the series on dihydrofolic reducatase, the “inhibition of the second reduction, from dihydrofolic acid to tetrahydrofolic acid” value is “inhibit the second reduction”.
